According to patent US10273208B2, “Screening methods for the binding affinity of chemical entities to biological molecules and NEDD4-1 inhibitors identified by the screening methods” (Northwestern University, priority 2014, dated 2019):
“Also recorded” adds a separate entry of the source. One block for each compound: values may come before it.

What was measured:
[1] = molecular target: T1, NEDD4-1 HECT domain (Homo sapiens, UniProt P46934); test: Covalent labeling of NEDD4-1 HECT domain (gel filtration, whole protein ESI-MS); format: binding
T1 construct: to elute NEDD4-1 HECT domain (50 mM HEPES, 150 mM NaCl, 0.1 mM EDTA 1 mM DTT); GST (N, cleaved yes); made in house; host or cells: E. coli BL21
T1 sequence (P46934 with tags, fused parts or gaps): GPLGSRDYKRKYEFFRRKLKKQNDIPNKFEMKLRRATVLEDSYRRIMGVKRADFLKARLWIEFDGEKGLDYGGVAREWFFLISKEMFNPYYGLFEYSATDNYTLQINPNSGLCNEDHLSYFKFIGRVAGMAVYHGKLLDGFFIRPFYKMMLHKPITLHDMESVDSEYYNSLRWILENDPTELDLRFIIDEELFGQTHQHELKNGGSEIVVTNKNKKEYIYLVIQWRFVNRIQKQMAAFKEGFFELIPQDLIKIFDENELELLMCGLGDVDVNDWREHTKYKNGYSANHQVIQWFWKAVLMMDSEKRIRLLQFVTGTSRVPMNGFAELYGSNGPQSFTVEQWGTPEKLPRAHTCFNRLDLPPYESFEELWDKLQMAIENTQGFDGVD
Method: 10 μM of NEDD4-1 HECT domain in 50 mM HEPES 150 mM NaCl 0.1 mM EDTA 1 mM DTT pH 7.5 was treated with a mixture of ten fragments (from 10 mM each DMSO stock solution mixtures; final concentrations: 100 μM of each fragment, and 1% DMSO). Fragment structures and mixture compositions were the same as reported previously. The reaction mixture was incubated for 4 h at 23° C. before being passed through Zeba gel filtration columns (Thermo, 7K MWCO) to remove unreacted fragments. The protein solution was then immediately analyzed by whole protein LC/ESI-MS.
Accurate-mass data were obtained on an Agilent 6210A LC-TOF mass spectrometer in positive ion mode using electrospray ionization. Samples were chromatographed on the LC-TOF instrument using a Poroshell 120 EC-C18 HPLC column (2.1*50 mm, 2.7 micron), an Agilent Series 1200 HPLC binary pump, and an Agilent Series 1200 autoinjector. The HPLC column was held at 45° C. and the autosampler was held at 8° C. Mobile Phase A was a solution of 0.1% formic acid in water:acetonitrile (19:1). Mobile Phase B was a solution of 0.1% formic acid in acetonitrile. The flow rate was set to 250 μL/min. The gradient used was 0% B for 2 minutes, ramping linearly to 90% B from 2 minutes to 5 minutes, holding at 90% B from 5 minutes to 7 minutes, and then returning to 0% B at 7.1 minutes. The column was allowed to equilibrate for 2.7 minutes before the next injection was initiated. The eluent from the column was diverted to waste for the first 2 minutes. The spectra were acquired from 301 to 3200 daltons using a gas temperature of 340° C., a gas flow of 7 liters/min, and the nebulizer gas at 35 psi. The following voltages were used: capillary 4200 V, fragmentor 230V, skimmer 64V, and octapole RF peak 250V. Spectra were acquired at a rate of 1 spectra/sec. The data was processed using MassHunter software version B.02.00. Maximum entropy deconvolutions were performed with a Mass Step of 1, S/N Threshold of 30, Average Mass at 90% of Peak Height, and 5 Charge States Minimum.
10 μM of NEDD4-1 HECT domain in 50 mM HEPES 150 mM NaCl 0.1 mM EDTA 1 mM DTT pH 7.5 was treated with 1 mM of inhibitor 1 or 2 (from 100 mM DMSO stock solution; final concentrations: 1 mM of inhibitor, 1% DMSO, and 0.2% CHAPS to solubilize the inhibitors at 1 mM). The reaction mixture was incubated for 4 h at 23° C. before being passed through Zeba gel filtration columns (Thermo, 7K MWCO) to remove unreacted inhibitor. The protein solution was then immediately used for crystallization or enzymatic assay.

[2] = molecular target: T1, NEDD4-1 HECT domain; test: In vitro ubiquitination assays; format: biochemical; settings: NEDD4-1 HECT pretreated with 1 mM compound for 3 h, quenched after 5 min
Method: FIG. 15A, FIG. 15B and FIG. 15C. (FIG. 15A) Enzymatic assay with compounds 1, 2, and 4. NEDD4-1 HECT domain was pretreated with 1% DMSO (lane 1), or 1 mM of compounds 1 (lane 2), 2 (lane 3), or 4 (lane 4) for 3 h before beginning the assay. The reaction mixtures were quenched after 5 min, and polyubiquitin chains were detected by Western blot with anti-ubiquitin antibody. (FIG. 15B) Cartoon depiction of the crystal structure of NEDD4-1:1 with key side chains and the inhibitor shown as spheres. (FIG. 15C) Close-up view of the inhibitor-binding site with the key side chains depicted as sticks and colored by atom type. The 2FO-FC electron density map (mesh, contoured at 1.0 σ) is presented for Cys^627 and 1.
FIG. 16A, FIG. 16B, FIG. 16C and FIG. 16D. (FIG. 16A) and (FIG. 16B) Compound 6 disrupts the NEDD4-1:Ub interaction as shown by a fluorescence polarization assay. Mean±s.e.m., n=3. (FIG. 16C) Compound 6 inhibits the ability of NEDD4-1 to polyubiquitinate the Wbp2-C-K222 protein substrate. NEDD4-1 was pretreated with 1% DMSO (lane 1), or 100 μM of compound 6 (lane 2) or compound 4 (lane 3) for 1.5 h before beginning the assay. Reaction mixtures were quenched at the indicated times and the amount of ubiquitinated Wbp2-C-K222 was determined using in-gel fluorescence. (FIG. 16D) Quantification of polyubiquitin chains in FIG. 16B. Mean±s.e.m., n=2. […]

[3] = molecular target: T2, NEDD4-1 HECT:ubiquitin-fluorescein interaction (Homo sapiens, UniProt P46934); test: Fluorescence polarization assay of NEDD4-1:Ub binding; settings: NEDD4-1 HECT 7.98 μM, ubiquitin-fluorescein 50 nM, 1 h
T2 construct: to elute NEDD4-1 HECT domain (50 mM HEPES, 150 mM NaCl, 0.1 mM EDTA 1 mM DTT); GST (N, cleaved yes); made in house; host or cells: E. coli BL21
T2 sequence (P46934 with tags, fused parts or gaps): T1 sequence (P46934 with tags, fused parts or gaps)
Method: NEDD4-1 HECT (7.98 μM) and ubiquitin-fluorescein (50 nM, Lifesensors) in 50 mM HEPES pH 7.5 150 mM NaCl 0.1 mM EDTA were treated with DMSO or varying concentrations of inhibitor in 1% DMSO in black 96 well plates. Changes in fluorescence polarization were monitored over 1 h with a Biotek Synergy 4 plate reader. Slopes of ln(polarization) vs. time were plotted with GraphPad Prism and used to determine the pseudo-first order rate contstant kobs for a given concentration of inhibitor. The values of kinact/KI for each inhibitor were then determined by fitting the kobs vs. [inhibitor] plot to the equation kobs=kinact*[inhibitor]/([inhibitor]+KI). All reactions were performed in triplicate and plotted as mean±s.e.m.

[4] = molecular target: T3, NEDD4-1 (~120 kDa band) in TC71 Ewing's sarcoma cells (Homo sapiens, UniProt P46934); test: Cell-based selectivity studies with alkyne probe 15, click reaction, in-gel fluorescence; settings: pretreatment 1 h, then 2 μM probe 15
T3 sequence (P46934 1-900 isoform P46934-4): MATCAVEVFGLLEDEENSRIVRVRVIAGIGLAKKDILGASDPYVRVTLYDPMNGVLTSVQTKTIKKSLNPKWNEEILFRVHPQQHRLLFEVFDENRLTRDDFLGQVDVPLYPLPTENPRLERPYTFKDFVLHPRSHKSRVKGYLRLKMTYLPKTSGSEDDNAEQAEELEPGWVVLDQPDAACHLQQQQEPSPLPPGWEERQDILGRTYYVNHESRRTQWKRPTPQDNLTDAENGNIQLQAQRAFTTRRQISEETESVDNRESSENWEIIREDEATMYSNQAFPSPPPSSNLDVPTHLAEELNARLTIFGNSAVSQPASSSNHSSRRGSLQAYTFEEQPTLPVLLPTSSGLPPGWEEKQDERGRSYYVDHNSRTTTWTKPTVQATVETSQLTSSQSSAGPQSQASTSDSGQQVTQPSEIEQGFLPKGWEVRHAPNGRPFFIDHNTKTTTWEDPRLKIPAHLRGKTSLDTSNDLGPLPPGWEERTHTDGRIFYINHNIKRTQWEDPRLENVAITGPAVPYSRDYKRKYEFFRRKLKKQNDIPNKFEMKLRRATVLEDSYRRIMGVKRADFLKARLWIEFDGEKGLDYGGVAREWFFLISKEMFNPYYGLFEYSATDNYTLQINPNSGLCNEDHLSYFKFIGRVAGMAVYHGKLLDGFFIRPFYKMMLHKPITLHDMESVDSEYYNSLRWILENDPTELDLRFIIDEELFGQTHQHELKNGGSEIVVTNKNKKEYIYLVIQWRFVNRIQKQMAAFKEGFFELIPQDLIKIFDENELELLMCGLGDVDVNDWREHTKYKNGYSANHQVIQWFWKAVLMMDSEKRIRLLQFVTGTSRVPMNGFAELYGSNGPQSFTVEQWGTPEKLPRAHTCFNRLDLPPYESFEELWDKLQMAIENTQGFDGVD
Method: We treated TC71 Ewing's sarcoma cells (NEDD4-1 positive),^[6b] with 2 μM of compound 15, followed by lysis, click reaction with rhodamine azide, and in-gel fluorescence.^[15]
TC71 cells were cultured in Iscove's Modified Dulbecco's Medium (IMDM), 20% (v/v) FBS, 4 mM glutamine, and lx ITS (5 μg/mL insulin, 5 μg/mL transferrin, 5 ng/mL selenous acid). Cells were grown to confluence in 6-well plates (9.6 cm^2 per well). The growth medium was aspirated off and replaced with 2 mL serum-free IMDM containing 0.1% DMSO or the indicated concentration of inhibitor in 0.1% DMSO. After 1 h incubation time at 37° C., cells were treated with 0.1% DMSO or 2 μM of probe 15 in 0.1% DMSO for an additional hour. […] Proteins were then resolved by SDS-PAGE 7.5% or 15% acrylamide gels, and subjected to in-gel scanning fluorescence imaging on the Typhoon 9400 at 610 nm excitation. The gel was then stained with Coomassie Brilliant Blue to visualize all proteins. Western blots were performed with anti-NEDD4-1 antibody from Cell Signaling (2740S).

labeling of NEDD4-1 ([1]; compound 100 μM, NEDD4-1 10 μM, 4 h): ~40% | labeling of NEDD4-1 HECT domain (qualitative) ([1]; compound 100 μM, NEDD4-1 HECT 10 μM, 4 h): monolabel | labeling of NEDD4-1 in the presence of ubiquitin ([1]; compound 100 μM, NEDD4-1 HECT 10 μM, ubiquitin 60 μM, 4 h): completely inhibited | covalent modification of NEDD4-1 HECT domain in the mixture screen ([1]; ten mixtures of ten fragments, 100 μM each, 4 h): weak covalent modifiers
Structure (SMILES): COC(=O)/C=C/CNC(=O)c1c(C)n(C)c2ccc(OC)cc12 [Compound 1, Methyl(E)-4-(5-methoxy-1,2-dimethyl-1H-indole-3-carboxamido)but-2-enoate]
modification of NEDD4-1 HECT domain at 1 mM ([1]; compound 1 mM, 3-4 h): complete modification; also recorded: fully labels NEDD4-1 HECT domain after 3 h, with minor non-specific dilabeling | polyubiquitin chain assembly by NEDD4-1 (anti-ubiquitin Western blot) [2]: defective at assembling polyubiquitin chains; also recorded: inhibition of polyubiquitization

Structure (SMILES): COC(=O)/C=C/CNC(=O)c1c(C)n(C2CCCC2)c2ccc(OC)cc12 [Compound 6]
kinact [3]: 5.8e-05 s⁻¹ | KI (inactivation constant) ([3]; read-out: K1 (disruption of NEDD4-1:Ub binding)): 29.3 µM

effect of pretreatment on probe 15 labeling of the ~120 kDa band (NEDD4-1) [4]: inactive
Structure (SMILES): COC(=O)/C=C/CNC(=O)c1c(C)n(C)c2ccccc12 [Compound 11, Methyl(E)-4-(1,2-dimethyl-1H-indole-3-carboxamido)but-2-enoate]
